The record followed here is US7045526B2, “Substituted 4-amino-2-aryl-tetrahydroquinazolines, their preparation, their use and pharmaceutical preparations comprising them” (Sanofi-Aventis Deutschland GmbH, priority 1999, dated 2006).

In this experiment the target is T1, soluble guanylate cyclase (sGC) (Bos taurus, UniProt P16068+P19687).
T1 construct: The sGC employed had been isolated from bovine lung; from tissue; host or cells: bovine lung
T1 sequence (P16068 1-619): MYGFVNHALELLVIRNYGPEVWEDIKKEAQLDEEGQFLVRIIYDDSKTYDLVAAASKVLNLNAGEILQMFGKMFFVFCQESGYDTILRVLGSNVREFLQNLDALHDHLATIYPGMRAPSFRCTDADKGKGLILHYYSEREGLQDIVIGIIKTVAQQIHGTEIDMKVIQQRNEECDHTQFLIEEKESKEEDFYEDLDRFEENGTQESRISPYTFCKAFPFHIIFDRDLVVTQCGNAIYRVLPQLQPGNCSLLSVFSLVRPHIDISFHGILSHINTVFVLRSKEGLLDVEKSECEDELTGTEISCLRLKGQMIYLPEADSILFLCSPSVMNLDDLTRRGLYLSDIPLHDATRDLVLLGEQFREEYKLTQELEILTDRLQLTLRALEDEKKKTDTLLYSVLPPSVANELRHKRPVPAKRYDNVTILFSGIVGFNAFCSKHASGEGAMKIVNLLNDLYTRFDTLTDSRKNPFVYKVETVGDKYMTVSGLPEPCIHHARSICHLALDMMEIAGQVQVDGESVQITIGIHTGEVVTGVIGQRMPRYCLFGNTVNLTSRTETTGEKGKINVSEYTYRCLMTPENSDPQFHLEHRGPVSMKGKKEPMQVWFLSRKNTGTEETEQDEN
T1 sequence (P19687 1-691): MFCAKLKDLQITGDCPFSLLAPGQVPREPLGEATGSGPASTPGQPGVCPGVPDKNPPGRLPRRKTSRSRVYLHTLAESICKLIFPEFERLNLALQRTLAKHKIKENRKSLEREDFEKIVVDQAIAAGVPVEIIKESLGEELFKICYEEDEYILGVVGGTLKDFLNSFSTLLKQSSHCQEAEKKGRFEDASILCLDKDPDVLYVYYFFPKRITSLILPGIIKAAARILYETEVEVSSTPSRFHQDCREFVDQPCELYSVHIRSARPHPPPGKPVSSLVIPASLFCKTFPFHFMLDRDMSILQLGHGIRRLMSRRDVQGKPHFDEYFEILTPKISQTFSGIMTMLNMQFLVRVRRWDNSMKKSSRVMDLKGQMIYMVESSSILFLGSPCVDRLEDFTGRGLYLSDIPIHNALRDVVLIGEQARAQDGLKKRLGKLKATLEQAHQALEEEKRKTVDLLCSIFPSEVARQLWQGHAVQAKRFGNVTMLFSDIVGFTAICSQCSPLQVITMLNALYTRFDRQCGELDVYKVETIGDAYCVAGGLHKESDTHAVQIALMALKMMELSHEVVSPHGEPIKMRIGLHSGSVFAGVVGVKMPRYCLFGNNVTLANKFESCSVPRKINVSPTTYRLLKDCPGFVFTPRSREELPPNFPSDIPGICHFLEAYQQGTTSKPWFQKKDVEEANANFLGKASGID
Description: Activation of soluble guanylate cyclase (cGMP enzyme immunoassay). The class given is biochemical. The note with it: test substance 50 μM; sGC isolated from bovine lung; 37° C., 15 to 20 minutes; [cGMP]test substance/[cGMP]control (basal enzyme activity). Here is the method: Activation of Soluble Guanylate Cyclase
The activation of soluble guanylate cyclase (sGC), which catalyzes the conversion of guanosine triphosphate (GTP) to cyclic guanosine monophosphate (cGMP) and pyrophosphate, by the compounds according to the invention was quantified with the aid of an enzyme immunoassay (EIA) from Amersham. For this, the test substances were first incubated with sGC in microtiter plates and then the quantity of the resulting cGMP was determined.
The sGC employed had been isolated from bovine lung (see Methods in Enzymology, Volume 195, p. 377). The test solutions (100 μl per well) contained 50 mM triethanolamine (TEA) buffer (pH 7.5), 3 mM MgCl2, 3 mM reduced glutathione (GSH), 0.1 mM GTP, 1 mM 3-isobutyl-1-methylxanthine (IBMX), suitably diluted enzyme solution and the test substance or, in the control experiments, solvent. […] The absorption of the samples was measured at 450 nm (reference wavelength 620 nm) in a microtiter plate reading apparatus. The cGMP concentration was determined by means of a calibration curve, which was obtained under the same experimental conditions. The activation of the sGC by a test substance is given as n-fold stimulation of the basal enzyme activity which was found in the control experiments (with solvent instead of test substance), calculated according to the formula: n-fold stimulation=[cGMP]test substance/[cGMP]control.

For the compound `CS(=O)(=O)O.O[C@H]1CC[C@H](Nc2nc(-c3ccc(Cl)cc3)nc3c2CCCC3)CC1` [Example 26, 2-(4-Chlorophenyl)-4-(trans-4-hydroxycyclohexylamino)-5,6,7,8-tetrahydroquinazoline methanesulfonic acid salt], the “n-fold stimulation (at c = 50 μM)” value amounted to 28 n-fold.
